Experimental data reported in patent US6541612B2 (Wyeth, priority 1993, dated 2003).

Columns and labels:
[1] = tested on: Anti-rapamycin Antibody; test: Capture ELISA of anti-rapamycin antibody levels in rabbit sera; type: binding; details: sera diluted 1:5, conjugate 0.5 ng/ml
Protocol: Microtiter plates (IMMUNOLON I) were coated overnight with 100 μl of goat anti-mouse antibody (10 μg/ml in 10 mM potassium phosphate buffer, pH 7.2) at 4° C. The plates were flicked and blocked with 100 μl of 1% bovine sera albumin in phosphate buffered saline overnight at 4° C. […] After flicking and washing the plates thrice with wash buffer, TMB substrate with H2O2 was added and the plates were incubated covered for 30 min. at room temperature in the dark. The optical density was read on a spectrophotometer at 450 nm.

[2] = biological target: T1, FKBP12 (Homo sapiens, UniProt P62942); test: Fluorescence polarization, tracer binding to FKBP12; details: for fluorescence polarization on addition of FKBP12: 0.ug FKBP12 to 1.00 mL 10 nM tracer; for fluorescence polarization before addition of FKBP12: 1.00 mL 10 nM tracer
[3] = tested on: RAP-42-OVAF2#1 MoAb; details: for fluorescence polarization on addition of RAP-42-OVAF2#1 MoAb: 5 ug/mL MoAb
Excerpt: The hybridoma cell line in P4G1 was cloned by limiting dilution and is designated as hybridoma cell line, RAP-42-OVAF2#1hc.

[4] = tested on: rapamycin specific antibody; test: BIAcore binding of antibody to matrix-immobilized compound; details: 803 resonance units (RU) of the compound immobilized on a solid matrix, EDC and NHS
Protocol: The following example illustrates that 803 resonance units (RU) of the compound of Example 11 can be immobilized on a solid matrix using the BIAcore's standard protocol based on EDC and NHS used in a BIAcore. […] The kinetics of association and dissociation were determined for each concentration of antibody tested (0.625, 1.25, 2.5, 5.0, 10.0 ug/ml). […] This matrix can also be used for the isolation of novel binding proteins, as practiced by one skilled in the art. […] In one approach, tissue or cell lysates containing the appropriate protease inhibitors are incubated with FKBP which has been incubated with a deprotected-rapamycin 42-ester with N-[9fluoren-9-ylmethoxy)carbonyl]glycine conjugated matrix for a sufficient time to allow binding. Various buffers are used to rinse the proteins which are nonspecifically bound.

[5] = tested on: mice; details: 50 μg intrasplenically in Complete Freund's Adjuvant, boost 50 μg into footpads
Protocol: Microtiter plates (IMMUNOLON I) were coated overnight with 100 μl of goat anti-mouse antibody (10 μg/ml in 10 mM potassium phosphate buffer, pH 7.2) at 4° C. The plates were flicked and blocked with 100 μl of 1% bovine sera albumin in phosphate buffered saline overnight at 4° C. After flicking and washing the plates thrice with 10 mM phosphate buffer, pH 7.05, 30 mM NaCl, 0.02% TRITON X-100 (polyethylene glycol tert-octylphenyl ether) and 0.004% thimerosal wash buffer, 100 μl of each mouse sera diluted with phosphate buffer solution was added to a well and incubated at room temperature for overnight.

[6] = tested on: RAP-42-OVAF2#1
[7] = biological target: T1, FKBP12; test: Fluorescence polarization competition, rapamycin-fluorescein and FKBP12; type: binding
[8] = tracer 10 nM in 100 mM sodium phosphate pH 7.5

T1 sequence (P62942 whole entry, species assumed): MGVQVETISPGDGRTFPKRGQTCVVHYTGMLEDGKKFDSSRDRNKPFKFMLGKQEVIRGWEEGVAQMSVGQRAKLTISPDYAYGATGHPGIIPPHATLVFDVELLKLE

In the case of “Rapamycin 31.42-Diester with Glutaric Acid Conjugate with Horseradish Peroxidase [Example 10]”, the “Prebleed (A450)” value ([1]; Rabbit No. 81) is reported as 0.119, the “ΔA450 (3rd Bleed-Prebleed)” value ([1]; Rabbit No. 81) is reported as 0.713 and the “Prebleed (A450)” value ([1]; Rabbit No. 89) is reported as 0.136. For the same molecule, the “ΔA450 (3rd Bleed-Prebleed)” value ([1]; Rabbit No. 89) was 0.037.

With CO[C@H]1C[C@@H]2CC[C@@H](C)[C@@](O)(O2)C(=O)C(=O)N2CCCC[C@H]2C(=O)O[C@H]([C@H](C)C[C@@H]2CC[C@@H](OC(=O)CCC(=O)NCC(=O)Nc3ccc4c(c3)C(=O)OC43c4ccc(O)cc4Oc4cc(O)ccc43)[C@H](OC)C2)CC(=O)[C@H](C)/C=C(\C)[C@@H](O)[C@@H](OC)C(=O)[C@H](C)C[C@H](C)/C=C/C=C/C=C/1C [Example 23a, Rapamycin-42-ester with Succinic Acid Conjugate with 5-Glycinlfluoresceinamine] the “fluorescence polarization on addition of FKBP12” value [2] was 148 mP, the “fluorescence polarization before addition of FKBP12” value [2] was 57 mP and the “polarization after addition of an excess of FKBP12” value [2, 8] was 195 mP. The “polarization of tracer alone” value ([2]; tracer 10 nM in 100 mM sodium phosphate pH 7.5, no binder) was 77 mP, the “fluorescence polarization on addition of RAP-42-OVAF2#1 MoAb” value [3] was 58 mP and the “polarization after addition of excess of RAP-42-OVAF2#1 MoAb” value [3, 8] was 84 mP.

With COC1CC2CCC(C)C(O)(O2)C(=O)C(=O)N2CCCCC2C(=O)OC(C(C)CC2CCC(OC(=O)CNC(=O)OCC3c4ccccc4-c4ccccc43)C(OC)C2)CC(=O)C(C)C=C(C)C(O)C(OC)C(=O)C(C)CC(C)C=CC=CC=C1C (stereo not shown) [Example 11] the “rapamycin specific antibody bound by the matrix” value [4] was 1401 RU.

“Rapamycin 42-Ester with 3-[3-(4-iminobutylthio)succinimidyl]phenacyl-glycine Conjugate with Horseradish Peroxidase [Example 12]” was tested, and the “ΔA450 (3rd Bleed-Prebleed)” value ([1]; Rabbit No. 81) was 0.217 and the “ΔA450 (3rd Bleed-Prebleed)” value ([1]; Rabbit No. 89) was 0.026.

With “Rapamycin 31.42-Diester with Glutaric Acid Conjugate with Keyhole Limpet Hemocyanin [Example 8]” the “mice with antibodies reactive for compound of Example 10” value [5] was “five of the five”.

With “Secorapamycin 42-ester with Succinic Acid Conjugate with 5-Glycinylfluoresceinamine [Example 24]” the “fluorescence polarization on addition of FKBP12” value [2] was 58 mP, the “fluorescence polarization before addition of FKBP12” value [2] was 49 mP and the “binding by RAP-42-OVAF2#1 MoAb (in words)” value [3] was “binds specifically”. For the same molecule, the “fluorescence polarization before addition of RAP-42-OVAF2#1 MoAb” value [3] was 44 mP and the “fluorescence polarization on addition of RAP-42-OVAF2#1 MoAb” value [3] was 136 mP.

For CO[C@@H](C[C@@H]1CC[C@@H](C)[C@](O)(C(=O)C(=O)N2CCCC[C@H]2C(=O)[O-])O1)/C(C)=C/C=C/C=C/[C@@H](C)C[C@@H](C)C(=O)[C@H](OC)[C@H](O)/C(C)=C/[C@@H](C)C(=O)/C=C/[C@H](C)C[C@@H]1CC[C@@H](O)[C@H](OC)C1.[Na+] [secorapamycin], the “fluorescence polarization in the presence of analyte” value ([6]; 100 nM analyte, 124 mP in the absence of analyte, 500 μL 10 μg/mL MoAb + 500 μL 20 nM secorapamycin-fluorescein) was 74 mP, the “effect on binding of secorapamycin fluorescein derivative to RAP-42-OVAF2#1 (in words)” value ([6]; analyte 0 to 100 nM) was “inhibits binding” and the “fluorescence polarization in the presence of analyte” value ([7]; 100 nM analyte, 128 mP in the absence of analyte, 500 uL 0.02 ug/mL FKBP12 + 500 μL 20 nM rapamycin-fluorescein) was 122 mP. For the same molecule, the “effect on binding of rapamycin-fluorescein to FKBP12 (in words)” value ([7]; analyte 0 to 100 nM) was “no effect”.

B1: Rapamycin 42 Ester with (N-(3-carboxyphenyl)-3-thiosuccinimidyl)-glycine Conjugate with Horseradish Peroxidase (conjugate, UniProt P00433 31-338, looked up)
Peroxidase C1A: QLTPTFYDNSCPNVSNIVRDTIVNELRSDPRIAASILRLHFHDCFVNGCDASILLDNTTSFRTEKDAFGNANSARGFPVIDRMKAAVESACPRTVSCADLLTIAAQQSVTLAGGPSWRVPLGRRDSLQAFLDLANANLPAPFFTLPQLKDSFRNVGLNRSSDLVALSGGHTFGKNQCRFIMDRLYNFSNTGLPDPTLNTTYLQTLRGLCPLNGNLSALVDFDLRTPTIFDNKYYVNLEEQKGLIQSDQELFSSPNATDTIPLVRSFANSTQTFFNAFVEAMDRMGNITPLTGTQGQIRLNCRVVNSNS
modifications: rapamycin 42-ester hapten conjugate
With B1 the “ΔA450 (3rd Bleed-Prebleed)” value ([1]; Rabbit No. 81) was 0.114 and the “ΔA450 (3rd Bleed-Prebleed)” value ([1]; Rabbit No. 89) was 0.020.
